Laboratory results taken from patent publication US20090069320A1, “Substituted 4-Amino-Quinazoline Compounds with Metabotropic Glutamate Receptor Regulating Activity and Uses Thereof” (Gruenenthal GmbH, priority 2006, published 2009).
Where a name gives a salt, the structure may show the parent alone. Read-outs that look alike come from different tables or passages of the source.

Target: T1, mGluR5 receptor (Sus scrofa, UniProt I3LUI7)
T1 construct: 450 μg of protein from brain homogenate with 5 nM ^3[H]-MPEP; from tissue; host or cells: pig brain halves without medulla, cerebellum and pons
T1 sequence (I3LUI7 19-1212): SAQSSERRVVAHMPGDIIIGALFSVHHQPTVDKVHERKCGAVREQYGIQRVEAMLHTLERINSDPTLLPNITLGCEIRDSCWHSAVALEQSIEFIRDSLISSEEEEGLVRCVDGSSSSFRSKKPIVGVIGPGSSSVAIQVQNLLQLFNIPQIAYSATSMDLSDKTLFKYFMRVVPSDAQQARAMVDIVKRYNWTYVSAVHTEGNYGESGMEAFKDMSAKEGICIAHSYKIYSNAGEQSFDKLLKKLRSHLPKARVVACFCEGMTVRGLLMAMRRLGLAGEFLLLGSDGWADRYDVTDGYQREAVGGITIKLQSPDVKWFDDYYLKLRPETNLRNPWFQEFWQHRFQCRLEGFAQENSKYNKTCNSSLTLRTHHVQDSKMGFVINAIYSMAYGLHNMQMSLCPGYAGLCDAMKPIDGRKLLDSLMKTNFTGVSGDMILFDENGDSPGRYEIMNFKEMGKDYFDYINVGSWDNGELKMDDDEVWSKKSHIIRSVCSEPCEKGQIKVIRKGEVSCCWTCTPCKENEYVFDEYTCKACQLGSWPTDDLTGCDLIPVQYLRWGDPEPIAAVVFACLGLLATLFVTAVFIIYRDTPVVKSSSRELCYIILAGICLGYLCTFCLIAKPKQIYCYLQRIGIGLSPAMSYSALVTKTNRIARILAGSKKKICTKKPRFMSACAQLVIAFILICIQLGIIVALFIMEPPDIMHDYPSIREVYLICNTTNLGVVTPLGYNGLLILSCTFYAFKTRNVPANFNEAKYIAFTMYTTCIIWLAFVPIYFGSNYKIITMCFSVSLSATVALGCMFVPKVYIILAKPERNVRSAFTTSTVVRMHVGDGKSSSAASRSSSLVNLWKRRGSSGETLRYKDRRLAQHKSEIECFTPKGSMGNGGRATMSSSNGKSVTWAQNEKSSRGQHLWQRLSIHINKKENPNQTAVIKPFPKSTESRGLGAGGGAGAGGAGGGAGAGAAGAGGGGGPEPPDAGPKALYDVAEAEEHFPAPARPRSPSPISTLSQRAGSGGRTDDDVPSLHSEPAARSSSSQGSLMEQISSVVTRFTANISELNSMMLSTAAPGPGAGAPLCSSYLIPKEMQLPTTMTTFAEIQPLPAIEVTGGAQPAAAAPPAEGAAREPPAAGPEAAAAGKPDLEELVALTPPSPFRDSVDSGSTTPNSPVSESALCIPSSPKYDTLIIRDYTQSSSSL
Test: [3H]-MPEP mGluR5 receptor binding assay (pig brain homogenate)
Details: 5 nM [3H]-MPEP; for inhibition at 10 µM / % Inhibition of mGluR5 Receptor (pig) [^3H]-MPEP Bond at 10 μM: 10 μM compound; for inhibition at 10 µM: read-out: % Inhibition of mGluR5 Receptor (pig) [^3H]-MPEP Bond at 10 μM
In short: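 Radioligand displacement of 5 nM [3H]-MPEP from pig brain homogenate (450 μg protein; medulla, cerebellum and pons removed) in 20 mM Hepes pH 8.0. Compounds were tested at 10 μM, incubated 60 min at room temperature, then filtered and counted by scintillation. Non-specific binding was defined with 10 μM MPEP.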

[1] = read-out: IC50 mGluR5 Receptor (pig) [^3H]-MPEP Bond

Row | SMILES | inhibition at 10 µM [%] | other results
1 | c1nc(NC2CC2)c2cc(-c3csc(CNC4CC4)c3)ccc2n1 [Example 300, N-cyclopropyl-6-(5-((cyclopropylamino)methyl)thiophen-3-yl)quinazoline-4-amine] | 51 | –
2 | Fc1ccc(-c2ccc3ncnc(NC4CC4)c3c2)c(F)c1CNC1CC1 [Example 304, N-cyclopropyl-6-(3-((cyclopropylamino)methyl)-2,4-difluorophenyl)quinazoline-4-amine] | – | IC50 [1]: 3.11 µM
3 | Cc1cc(CNC2CC2)cc(-c2ccc3ncnc(NC4CC4)c3c2)c1 [Example 306, N-cyclopropyl-6-(3-((cyclopropylamino)methyl)-5-methylphenyl)quinazoline-4-amine] | 33 | –
4 | CC(NC1CC1)c1cccc(-c2ccc3ncnc(NC4CC4)c3c2)c1 (stereo not drawn) [Example 307, N-cyclopropyl-6-(3-(1-(cyclopropylamino)ethyl)phenyl)quinazoline-4-amine] | 37 | –
5 | CCCCNCc1cccc(-c2ccc3ncnc(NC4CC4)c3c2)c1 [Example 310, 6-(3-((butylamino)methyl)phenyl)-N-cyclopropylquinazoline-4-amine] | 50 | –
6 | c1cc(CNCc2ccco2)cc(-c2ccc3ncnc(NC4CC4)c3c2)c1 [Example 312, N-cyclopropyl-6-(3-((furan-2-ylmethylamino)methyl)phenyl)quinazoline-4-amine dihydrochloride] | 58 | –
7 | ClCCNCc1cccc(-c2ccc3ncnc(NC4CC4)c3c2)c1 [Example 315, 6-(3-((2-chloroethylamino)methyl)phenyl)-N-cyclopropylquinazoline-4-amine] | – | IC50 (IC50 mGluR5 Receptor (pig) [^3H]-MPEP Bond): 2.74 µM
8 | N#CCNCc1cccc(-c2ccc3ncnc(NC4CC4)c3c2)c1 [Example 320, 2-(3-(4-(cyclopropylamino)quinazolin-6-yl)benzylamino)acetonitrile] | 72 | –
9 | CC(C)(C)Nc1ncnc2ccc(-c3ccc(F)c(CNC4CC4)c3)cc12 [Example 322, N-tert-butyl-6-(3-((cyclopropylamino)methyl)-4-fluorophenyl)quinazoline-4-amine] | – | IC50 [1]: 2.98 µM
10 | Fc1c(CNC2CC2)cccc1-c1ccc2ncnc(NC3CC3)c2c1 [Example 324, N-cyclopropyl-6-(3-((cyclopropylamino)methyl)-2-fluorophenyl)quinazoline-4-amine] | 55 | –
11 | O=C(O)CCC(=O)NCc1cccc(-c2ccc3ncnc(Nc4ccccc4)c3c2)c1 [Example 329, 4-oxo-4-(3-(4-(phenylamino)quinazolin-6-yl)benzylamino)butyric acid] | 57 | –
12 | O=C(O)CCC(=O)NCc1cccc(-c2ccc3ncnc(NCC(=O)O)c3c2)c1 [Example 330, 4-(3-(4-(carboxymethylamino)quinazolin-6-yl)benzylamino)-4-oxobutyric acid] | 47 | –
13 | COc1ccc(C(=O)N(Cc2cc(-c3ccc4ncnc(NC5CC5)c4c3)ccc2F)C2CC2)cc1OC [Example 366, N-cyclopropyl-N-(5-(4-(cyclopropylamino)quinazolin-6-yl)-2-fluorobenzyl)-3,4-dimethoxybenzamide] | 90 | –
14 | O=C(c1cccnc1)N(Cc1cc(-c2ccc3ncnc(NC4CC4)c3c2)ccc1F)C1CC1 [Example 367, N-cyclopropyl-N-(5-(4-(cyclopropylamino)quinazolin-6-yl)-2-fluorobenzyl)nicotinamide] | 94 | –
15 | O=S(=O)(c1ccccc1)N(Cc1cc(-c2ccc3ncnc(NC4CC4)c3c2)ccc1F)C1CC1 [Example 368, N-cyclopropyl-N-(5-(4-(cyclopropylamino)quinazolin-6-yl)-2-fluorobenzyl)benzole sulfonamide] | – | % Inhibition of mGluR5 Receptor (pig) [^3H]-MPEP Bond at 10 μM: 85%
16 | Cc1cc(C(=O)N(Cc2cccc(-c3ccc4ncnc(NCCc5ccccc5)c4c3)c2)C2CC2)n(C)n1 [Example 369, N-cyclopropyl-1,3-dimethyl-N-(3-(4-(phenethylamino)quinazolin-6-yl)benzyl)-1H-pyrazole-5-carboxamide] | 34 | –
17 | O=C(c1ccccn1)N(Cc1cccc(-c2ccc3ncnc(NCCc4ccccc4)c3c2)c1)C1CC1 [Example 370, N-cyclopropyl-N-(3-(4-(phenethylamino)quinazolin-6-yl)benzyl)picolinamide] | 52 | –
18 | O=S(=O)(c1cccc(C(F)(F)F)c1)N(Cc1cc(-c2ccc3ncnc(NC4CC4)c3c2)ccc1F)C1CC1 [Example 375, N-cyclopropyl-N-(5-(4-(cyclopropylamino)quinazolin-6-yl)-2-fluorobenzyl)-3-(trifluoromethyl)benzole sulfonamide] | – | % Inhibition of mGluR5 Receptor (pig) [^3H]-MPEP Bond at 10 μM: 34%
19 | COc1ccc(S(=O)(=O)N(Cc2cc(-c3ccc4ncnc(NC5CC5)c4c3)ccc2F)C2CC2)cc1 [Example 383, N-cyclopropyl-N-(5-(4-(cyclopropylamino)quinazolin-6-yl)-2-fluorobenzyl)-4-methoxybenzole sulfonamide] | – | % Inhibition of mGluR5 Receptor (pig) [^3H]-MPEP Bond at 10 μM: 69%
20 | COCC(=O)N(Cc1cc(-c2ccc3ncnc(NC4CC4)c3c2)ccc1F)C1CC1 [Example 390, N-cyclopropyl-N-(5-(4-(cyclopropylamino)quinazolin-6-yl)-2-fluorobenzyl)-2-methoxyacetamide] | – | IC50 [1]: 0.07 µM
21 | O=S(=O)(c1ccc(Cl)cc1Cl)N(Cc1cc(-c2ccc3ncnc(NC4CC4)c3c2)ccc1F)C1CC1 [Example 391, 2,4-dichloro-N-cyclopropyl-N-(5-(4-(cyclopropylamino)quinazolin-6-yl)-2-fluorobenzyl)benzole sulfonamide] | – | % Inhibition of mGluR5 Receptor (pig) [^3H]-MPEP Bond at 10 μM: 74%
22 | O=S(=O)(c1c(F)c(F)c(F)c(F)c1F)N(Cc1cc(-c2ccc3ncnc(NC4CC4)c3c2)ccc1F)C1CC1 [Example 399, N-cyclopropyl-N-(5-(4-(cyclopropylamino)quinazolin-6-yl)-2-fluorobenzyl)-2,3,4,5,6-pentafluorobenzole sulfonamide] | – | % Inhibition of mGluR5 Receptor (pig) [^3H]-MPEP Bond at 10 μM: 39%

The next lines start with results.

Row | inhibition at 10 µM [%] | SMILES | other results
23 | 91 | O=C(c1cccc(F)c1)N(Cc1cc(-c2ccc3ncnc(NC4CC4)c3c2)ccc1F)C1CC1 [Example 374, N-cyclopropyl-N-(5-(4-(cyclopropylamino)quinazolin-6-yl)-2-fluorobenzyl)-3-fluorobenzamide] | –
24 | 59 | O=C(c1ccncc1)N(Cc1cccc(-c2ccc3ncnc(NCCc4ccccc4)c3c2)c1)C1CC1 [Example 377, N-cyclopropyl-N-(3-(4-(phenethylamino)quinazolin-6-yl)benzyl)isonicotinamide] | –
25 | 46 | Cc1cccc(CNc2ncnc3ccc(-c4cccc(CN(C5CC5)S(C)(=O)=O)c4)cc23)c1 [Example 380, N-cyclopropyl-N-(3-(4-(3-methylbenzylamino)quinazolin-6-yl)benzyl)methane sulfonamide] | –
26 | 90 | O=C(c1ccc(F)cc1F)N(Cc1cc(-c2ccc3ncnc(NC4CC4)c3c2)ccc1F)C1CC1 [Example 381, N-cyclopropyl-N-(5-(4-(cyclopropylamino)quinazolin-6-yl)-2-fluorobenzyl)-2,4-difluorobenzamide] | –
27 | 89 | CCCCC(=O)N(Cc1cc(-c2ccc3ncnc(NC4CC4)c3c2)ccc1F)C1CC1 [Example 382, N-cyclopropyl-N-(5-(4-(cyclopropylamino)quinazolin-6-yl)-2-fluorobenzyl)pentanamide] | –
28 | 35 | O=C(c1cccnc1)N(Cc1cccc(-c2ccc3ncnc(NCCc4ccccc4)c3c2)c1)C1CC1 [Example 385, N-cyclopropyl-N-(3-(4-(phenethylamino)quinazolin-6-yl)benzyl)nicotinamide] | –
29 | 91 | O=C(c1c(F)c(F)c(F)c(F)c1F)N(Cc1cc(-c2ccc3ncnc(NC4CC4)c3c2)ccc1F)C1CC1 [Example 389, N-cyclopropyl-N-(5-(4-(cyclopropylamino)quinazolin-6-yl)-2-fluorobenzyl)-2,3,4,5,6-pentafluorobenzamide] | –
30 | 95 | CC(=O)N(Cc1cccc(-c2ccc3ncnc(NCCc4ccccc4)c3c2)c1)C1CC1 [Example 393, N-cyclopropyl-N-(3-(4-(phenethylamino)quinazolin-6-yl)benzyl)acetamide] | –
31 | 44 | Cc1cccc(CNc2ncnc3ccc(-c4cccc(CN(C(=O)c5ccccn5)C5CC5)c4)cc23)c1 [Example 395, N-cyclopropyl-N-(3-(4-(3-methylbenzylamino)quinazolin-6-yl)benzyl)picolinamide] | –
32 | 87 | O=C(c1ccc(C(F)(F)F)cc1F)N(Cc1cc(-c2ccc3ncnc(NC4CC4)c3c2)ccc1F)C1CC1 [Example 397, N-cyclopropyl-N-(5-(4-(cyclopropylamino)quinazolin-6-yl)-2-fluorobenzyl)-2-fluoro-4-(trifluoromethyl)benzamide] | –
33 | 63 | CN(C)CC(=O)N(Cc1cc(-c2ccc3ncnc(NC4CC4)c3c2)ccc1F)C1CC1 [Example 398, N-cyclopropyl-N-(5-(4-(cyclopropylamino)quinazolin-6-yl)-2-fluorobenzyl)-2-(dimethylamino)acetamide] | –
34 | 36 | CC(C)(C)C(=O)N(Cc1cccc(-c2ccc3ncnc(NCCc4ccccc4)c3c2)c1)C1CC1 [Example 401, N-cyclopropyl-N-(3-(4-(phenethylamino)quinazolin-6-yl)benzyl)pivalamide] | –
35 | 34 | Cc1cccc(CNc2ncnc3ccc(-c4cccc(CN(C(=O)c5cc(C)nn5C)C5CC5)c4)cc23)c1 [Example 402, N-cyclopropyl-1,3-dimethyl-N-(3-(4-(3-methylbenzylamino)quinazolin-6-yl)benzyl)-1H-pyrazole-5-carboxamide] | –
36 | 40 | Cc1cccc(CNc2ncnc3ccc(-c4cccc(CN(C(=O)c5ccncc5)C5CC5)c4)cc23)c1 [Example 403, N-cyclopropyl-N-(3-(4-(3-methylbenzylamino)quinazolin-6-yl)benzyl)isonicotinamide] | –
